Laboratory results published in publication PMC4937633 (Journal of Drug Assessment, 2014).
“And” between values parts separate entries of the source, which are not always exact repeats. Equal values may be shown once. Read-outs that look alike come from different tables or passages of the source. Values belong to the compound of their own block, whether it stands above or below them.

How the values were obtained:
CHO cells = assay: Uptake in CHO cells; format: in vitro ADME; settings: data not shown
mouse mdr1a = biological target: T1, mouse mdr1a (Mus musculus, UniProt P21447); assay: P-glycoprotein substrate test, mouse mdr1a transfected LLCPK cells (L-Mdr1a); format: in vitro ADME; settings: in vitro
T1 construct: host or cells: LLCPK (porcine kidney epithelial cells), L-Mdr1a
T1 sequence (P21447 whole entry): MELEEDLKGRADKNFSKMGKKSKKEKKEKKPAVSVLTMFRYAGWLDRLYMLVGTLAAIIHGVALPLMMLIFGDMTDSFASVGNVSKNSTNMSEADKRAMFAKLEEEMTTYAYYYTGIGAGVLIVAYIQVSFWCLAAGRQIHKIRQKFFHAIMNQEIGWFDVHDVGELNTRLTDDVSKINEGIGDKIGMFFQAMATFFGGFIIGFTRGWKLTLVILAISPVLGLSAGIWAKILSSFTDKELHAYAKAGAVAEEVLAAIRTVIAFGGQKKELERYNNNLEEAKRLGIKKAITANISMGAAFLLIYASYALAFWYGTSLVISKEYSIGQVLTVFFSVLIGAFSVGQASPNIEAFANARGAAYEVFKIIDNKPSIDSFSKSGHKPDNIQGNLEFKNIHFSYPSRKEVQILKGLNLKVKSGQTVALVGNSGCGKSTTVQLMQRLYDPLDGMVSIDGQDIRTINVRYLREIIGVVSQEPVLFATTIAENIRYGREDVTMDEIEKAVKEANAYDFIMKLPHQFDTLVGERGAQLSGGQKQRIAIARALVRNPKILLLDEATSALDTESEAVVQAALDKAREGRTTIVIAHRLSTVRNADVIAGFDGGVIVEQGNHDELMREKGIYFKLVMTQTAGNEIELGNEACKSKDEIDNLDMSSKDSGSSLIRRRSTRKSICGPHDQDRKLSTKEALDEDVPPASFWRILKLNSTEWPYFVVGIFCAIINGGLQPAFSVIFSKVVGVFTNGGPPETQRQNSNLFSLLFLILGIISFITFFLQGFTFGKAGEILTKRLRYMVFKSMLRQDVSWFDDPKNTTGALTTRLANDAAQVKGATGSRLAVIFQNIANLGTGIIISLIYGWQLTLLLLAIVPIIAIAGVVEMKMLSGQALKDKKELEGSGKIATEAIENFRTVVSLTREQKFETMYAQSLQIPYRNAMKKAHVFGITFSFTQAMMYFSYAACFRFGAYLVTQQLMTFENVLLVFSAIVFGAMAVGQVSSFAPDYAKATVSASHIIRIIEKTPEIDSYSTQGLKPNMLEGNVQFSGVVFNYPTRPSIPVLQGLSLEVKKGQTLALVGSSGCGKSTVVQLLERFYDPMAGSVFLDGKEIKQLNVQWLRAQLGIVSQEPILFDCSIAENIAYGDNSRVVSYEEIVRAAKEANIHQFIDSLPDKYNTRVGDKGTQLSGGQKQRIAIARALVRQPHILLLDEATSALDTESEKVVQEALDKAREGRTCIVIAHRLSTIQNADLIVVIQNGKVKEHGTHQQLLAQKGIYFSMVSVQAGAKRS
Excerpt: (§1) Wild type and transfected MDCKII (ATCC #CCL34, cocker spaniel kidney epithelial cell line) and the LLCPK (ATCC #CL-101, porcine kidney epithelial cell line) cell lines were obtained from Dr A. Schinkel (The Netherlands Cancer Institute, Amsterdam, The Netherlands) and used under license agreement. […] The non-transfected wild-type cell lines MDCKII or LLCPK were used as controls. […] More assay details were recently published.

primary rat hepatocytes = assay: Uptake by primary rat hepatocytes; format: in vitro ADME; settings: data not shown
[1] = In vitro cell permeability; format: in vitro ADME
Excerpt: as §1

human MDR1 = biological target: T2, human MDR1 (Homo sapiens, UniProt P08183); assay: P-glycoprotein substrate test, human MDR1 transfected MDCKII cells (M-MDR1); format: in vitro ADME; settings: in vitro; M-MDR1 and L-MDR1 cells
T2 construct: host or cells: MDCKII (canine kidney epithelial cells), M-MDR1
T2 sequence (P08183 whole entry): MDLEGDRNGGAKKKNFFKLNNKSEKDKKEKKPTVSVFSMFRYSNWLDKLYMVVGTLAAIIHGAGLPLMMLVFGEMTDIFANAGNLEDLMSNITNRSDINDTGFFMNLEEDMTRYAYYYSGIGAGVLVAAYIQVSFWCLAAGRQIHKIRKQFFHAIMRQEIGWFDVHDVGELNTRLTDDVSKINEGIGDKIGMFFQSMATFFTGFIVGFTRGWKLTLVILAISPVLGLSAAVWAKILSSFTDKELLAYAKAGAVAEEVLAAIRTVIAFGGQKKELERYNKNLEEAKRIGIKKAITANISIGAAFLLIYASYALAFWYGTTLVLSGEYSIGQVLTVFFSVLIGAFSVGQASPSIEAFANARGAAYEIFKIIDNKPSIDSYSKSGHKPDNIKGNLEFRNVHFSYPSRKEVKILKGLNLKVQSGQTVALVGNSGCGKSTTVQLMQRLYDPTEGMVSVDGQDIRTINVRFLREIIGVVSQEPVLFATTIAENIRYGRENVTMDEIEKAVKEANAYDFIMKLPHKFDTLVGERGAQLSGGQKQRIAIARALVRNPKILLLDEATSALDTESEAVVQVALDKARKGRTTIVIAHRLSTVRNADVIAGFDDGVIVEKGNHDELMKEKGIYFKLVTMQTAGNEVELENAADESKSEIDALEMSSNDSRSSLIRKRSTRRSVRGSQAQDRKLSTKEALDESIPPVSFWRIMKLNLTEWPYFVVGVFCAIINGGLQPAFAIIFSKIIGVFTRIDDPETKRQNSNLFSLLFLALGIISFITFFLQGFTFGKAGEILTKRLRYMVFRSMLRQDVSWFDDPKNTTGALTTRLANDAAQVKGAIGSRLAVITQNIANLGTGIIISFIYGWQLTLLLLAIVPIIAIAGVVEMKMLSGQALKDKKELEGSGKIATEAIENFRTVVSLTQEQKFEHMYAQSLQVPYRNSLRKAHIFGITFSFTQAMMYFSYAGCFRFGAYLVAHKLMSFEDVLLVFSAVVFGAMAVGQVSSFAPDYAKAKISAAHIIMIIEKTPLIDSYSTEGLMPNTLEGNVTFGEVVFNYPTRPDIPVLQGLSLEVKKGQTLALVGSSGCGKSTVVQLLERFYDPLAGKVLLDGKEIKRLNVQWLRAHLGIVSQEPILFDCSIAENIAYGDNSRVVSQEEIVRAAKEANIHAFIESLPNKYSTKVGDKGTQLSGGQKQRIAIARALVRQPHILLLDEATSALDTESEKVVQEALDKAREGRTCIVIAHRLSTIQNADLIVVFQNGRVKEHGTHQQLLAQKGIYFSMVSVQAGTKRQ
Excerpt: as §1

[2] = system: primary human hepatocytes; assay: Uptake by primary human hepatocytes; format: in vitro ADME; settings: data not shown
P-glycoprotein (Pgp) = biological target: T3, P-glycoprotein (Pgp) (Homo sapiens, UniProt P08183); assay: Pgp inhibition potential with digoxin as model substrate (M-MDR1 cells); format: in vitro ADME; settings: in vitro
T3 construct: host or cells: transfected MDCKII or LLCPK cells
T3 sequence (P08183 whole entry): as above
Excerpt: The non-transfected wild-type cell lines MDCKII or LLCPK were used as controls. […] More assay details were recently published.

[3] = Clinical pharmacokinetics of carmegliptin (plasma and urine) alone or with verapamil; format: in vivo, human; settings: for AUC(0-inf) / Cmax / half-life / AUC(0-t) / Vd/F / Tmax: plasma; for Vd/F: read-out: Vz/F; for Tmax: median (range)
Method: All urine produced by subjects during each sampling interval was collected in pre-weighed polyethylene containers. The urine was refrigerated (2–8°C) between collections and, at the end of each collection interval, an aliquot of ∼10 mL was transferred to polyethylene tubes.
Plasma and urine samples were analyzed for carmegliptin by high-performance liquid chromatography combined with tandem mass spectrometric detection at F. Hoffmann-La Roche Ltd, Basel, Switzerland. The lower limit of quantification was 1 ng/mL for plasma and 20 ng/mL for urine.

[4] = Clinical safety and tolerability assessments; format: in vivo, human
Excerpt: Safety assessments during the treatment period included all adverse events, clinical laboratory safety tests (days 3, 9, and 14), urine chemistry (days 1, 10, and 15), 24-h ECGs (days 1, 10, and 15), and Lead-2 telemetry (days 1, 10, and 15). Subjects were resident in the unit on four occasions (day – 1 to day 3, day 6 to day 8 [morning], day 9 [evening] to day 12, and day 14 to day 17). Ambulatory visits were also required on day 8 (evening) and day 9 (morning) for pharmacokinetic sampling.
All adverse events (AEs) occurring during the clinical study were recorded and their intensity was assessed by investigators as mild, moderate, or severe. AEs occurring before first dosing were reported as baseline signs and symptoms. […] Investigators also assessed each AE’s relationship to treatment as unrelated, remote, possible, or probable. Factors used to determine the relationship to treatment included the temporal association of the AE with administration of study drug, the known pattern of response to the suspected drug, and re-appearance of the AE on re-challenge with the drug.
Vital signs, systolic and diastolic blood pressure, heart rate, and oral temperature were assessed after the subject had been in a supine position for at least 5 min. Vital signs were recorded at the following time-points: Screening visit, treatment period (days 1, 10, and 15 pre-dose and at 2, 6, and 12 h post-dose, and pre-dose only on days 3, 7, and 11–14), and at the follow-up visit. In addition, 12 lead-ECGs were recorded at screening visit day – 1, on days 1, 10, and 15 (pre-dose and at 2, 6, and 12 h post-dose) and at the follow-up visit. Heart rate, QT, QTcB, PR, and QRS were captured directly from the ECG machine. QTcF and RR were derived. T-wave morphology, the occurrence of U-waves, and any other observed abnormalities were additionally recorded. […] The CRF captured whether the results were normal or abnormal.

[5] = system: Type 2 diabetes animal models; parameters: method as in PMID 17073841, PMID 17981667; settings: dose-dependent; cited from earlier work
Pgp = settings: in vitro; cited from earlier work
[6] = Clinical pharmacokinetics of verapamil and norverapamil alone or with carmegliptin; settings: male, human, plasma, oral, 80 mg
[7] = acute verapamil (day 10) vs day 1
[8] = carmegliptin 150 mg + chronic verapamil 80 mg t.i.d., day 15, geometric mean (CV%)
[9] = chronic verapamil (day 15) vs day 1
[10] = male, human, oral, 150 mg, carmegliptin 150 mg single dose alone, day 1, geometric mean (CV%)
[11] = male, human, oral, carmegliptin 150 mg + acute verapamil 80 mg t.i.d., day 10, geometric mean (CV%)
[12] = male, human, oral, carmegliptin 150 mg + chronic verapamil 80 mg t.i.d., day 15, geometric mean (CV%)

- uptake process (CHO cells): mainly passive diffusion
- substrate of rodent mdr1a (mouse mdr1a): good substrate
- uptake process (primary rat hepatocytes): mainly passive diffusion
- cell permeability [1]: low cell permeability
- substrate of human MDR1 / human Pgp (human MDR1): good substrate
- uptake process [2]: mainly passive diffusion
- inhibitor of P-glycoprotein (Pgp) (P-glycoprotein (Pgp)): not an inhibitor
- AUCinf higher than carmegliptin alone [3, 7]: 19%
- Cmax higher than carmegliptin alone [3, 7]: 48%
- maximum plasma levels attained earlier than carmegliptin alone [3, 7]: ~2.25 h
- Fe (fraction of dose excreted unchanged in urine over 48 h) ([3]; carmegliptin 150 mg + acute verapamil 80 mg t.i.d., day 10, geometric mean (CV%)): 33% and 33.1% and 33.1 (17.7) %
- CLr (renal clearance) [3, 8]: 13.6 (14.7) L/h
- Fe (fraction of dose excreted unchanged in urine over 48 h) [3, 8]: 38.7% and 38.7 (18.1) %
- Fe (fraction of dose excreted unchanged in urine over 48 h) ([3]; carmegliptin 150 mg single dose alone, day 1, geometric mean (CV%)): 26% and 26.0 (22.7) %
- AUCinf higher than carmegliptin alone [3, 9]: 29%
- Cmax higher than carmegliptin alone [3, 9]: 53%
- maximum plasma levels attained earlier than carmegliptin alone [3, 9]: ~1.5 h
- peak concentrations occurred earlier ([3]; co-administered with verapamil, acute and chronic): 1.5 to 2.25 h
- CL renal ([3]; male, human, plasma and urine, oral, 150 mg, read-out: CLr (renal clearance) (converted)): 215 mL/min
- AUC(0-inf) [3, 10]: 3570 ng·h/mL
- Cmax [3, 10]: 342 ng/mL
- half-life [3, 10]: 22.4 h
- AUC(0-t) ([3]; male, human, oral, 150 mg, carmegliptin 150 mg single dose alone, day 1, geometric mean (CV%), read-out: AUC0–24): 2410 ng·h/mL
- AUC(0-t) ([3]; male, human, oral, 150 mg, carmegliptin 150 mg single dose alone, day 1, geometric mean (CV%), read-out: AUClast): 3010 ng·h/mL
- Vd/F [3, 10]: 1360 L
- Tmax ([3]; male, human, oral, 150 mg, carmegliptin 150 mg single dose alone, day 1): 3 h
- AUC(0-inf) [3, 11]: 4250 ng·h/mL
- Cmax [3, 11]: 505 ng/mL
- half-life [3, 11]: 21.8 h
- AUC(0-t) ([3]; male, human, oral, carmegliptin 150 mg + acute verapamil 80 mg t.i.d., day 10, geometric mean (CV%), read-out: AUC0–24): 2950 ng·h/mL
- AUC(0-t) ([3]; male, human, oral, carmegliptin 150 mg + acute verapamil 80 mg t.i.d., day 10, geometric mean (CV%), read-out: AUClast): 3650 ng·h/mL
- Vd/F [3, 11]: 1110 L
- Tmax ([3]; male, human, oral, carmegliptin 150 mg + acute verapamil 80 mg t.i.d., day 10): 0.75 h
- AUC(0-inf) [3, 12]: 4590 ng·h/mL
- Cmax [3, 12]: 522 ng/mL
- half-life [3, 12]: 14.4 h
- AUC(0-t) ([3]; male, human, oral, carmegliptin 150 mg + chronic verapamil 80 mg t.i.d., day 15, geometric mean (CV%), read-out: AUC0–24): 3620 ng·h/mL
- AUC(0-t) ([3]; male, human, oral, carmegliptin 150 mg + chronic verapamil 80 mg t.i.d., day 15, geometric mean (CV%), read-out: AUClast): 4280 ng·h/mL
- Vd/F [3, 12]: 678 L
- Tmax ([3]; male, human, oral, carmegliptin 150 mg + chronic verapamil 80 mg t.i.d., day 15): 1.5 h
Structure (SMILES): COc1cc2c(cc1OC)[C@@H]1C[C@H](N)[C@@H](N3C[C@@H](CF)CC3=O)CN1CC2 [Carmegliptin]
- subjects with prolonged PQ(PR) intervals (>200 ms) ([4]; after carmegliptin alone (day 1)): one
- tolerability ([4]; combination of carmegliptin and verapamil): generally well tolerated
- changes in vital signs, ECGs, or laboratory test variables attributed to treatment ([4]; healthy male volunteers): No changes
- tolerability ([4]; healthy male volunteers, carmegliptin 150 mg): generally well tolerated
- glucose tolerance [5]: improved glucose tolerance

- AUC(0-t) [6]: 203 ng·h/mL
- Cmax [6]: 63.8 ng/mL
- Tmax [6]: 1 h
Structure (SMILES): COc1ccc(CCNCCCC(C#N)(c2ccc(OC)c(OC)c2)C(C)C)cc1OC (stereo not shown) [Norverapamil]
- effect on Pgp activity (Pgp): inhibitory effects on Pgp activity
